Measurements: US20020061888A1, “Combination therapy for the prophylaxis and treatment of hyperlipidemic conditions and disorders” (priority 2000, published 2002)
“And” between values parts separate entries of the source, which are not always exact repeats. Equal values may be shown once. Marks after values point to notes of the source that are not given here.

What was measured:
[1] = tested on: Male beagle dogs; assay: Serum total cholesterol in beagle dogs (serum lipid measurements); type: in vivo; conditions: for TOTAL SERUM CHOLESTEROL / SERUM TOTAL CHOLESTEROL: n = 6; for decrease in serum total cholesterol concentration: compared to vehicle
Protocol: Male beagle dogs (9-10 kg) obtained from Marshall farms were fed a normal chow diet once a day for a two hour interval and given water ad libitum. Prior to initiating treatment, the dogs were weighed and blood samples were drawn from the cephalic vein of each dog following an overnight fast to evaluate pretreatment serum total cholesterol levels at the start of the study. […] All doses were administered in gelatin capsules per os to each dog between 9:00-9:30 a.m. prior to feeding. All animals were fed between 9:30-10:00 a.m. and were allowed two hours to eat, at which time any remaining food was removed. […] Animals were dosed daily for three weeks and blood samples were taken at the end of each week after an overnight fast for comparison with pretreatment serum total cholesterol levels. Three consecutive 24 hour fecal samples were collected for each group during the last 72 hours of each week and used to measure the concentration of fecal biles acids excreted during that time period.
Blood was collected from the cephalic vein of each dog into serum separator tubes. The blood was centrifuged at 900×g for 20 minutes at room temperature and the serum decanted. All analyses were performed on a Cobas Mira Clinical Analyzer System (Roche Diagnostic Systems, Branchburg, N.J.) using Roche Diagnostic reagents for enzymatic determinations of serum cholesterol. Commercial calibrator and quality control materials were analyzed with each run to verify assay accuracy and precision. A two-tailed, paired Students t-test was used to determine the statistical significance of changes in serum total cholesterol in treated dogs compared to pretreatment values. A one-way analysis of variance (“ANOVA”) was used to compare each pair of treatment groups to determine the statistical significance of changes in serum total cholesterol.
Beagle dogs also were administered pravastatin to evaluate the monotherapeutic effect of pravastatin on serum total cholesterol.
Male beagle dogs (9-10 kg) obtained from Marshall farms were fed once a day for two hours and given water ad libitum. Prior to initiating treatment, blood samples were drawn from the cephalic vein of each dog to evaluate pretreatment total serum cholesterol levels at the start of the study.
For the dose ranging study, the dogs were assigned to one of five groups based on mean body weights and serum total cholesterol levels. Each group received one of the following dosages: (1) vehicle (empty capsule, afternoon dosing), (2) 3.0 mg/kg/day pravastatin (afternoon dosing), (3) 10 mg/kg/day pravastatin (afternoon dosing), (4) 30 mg/kg/day pravastatin (afternoon dosing), and (5) 10 mg/kg/day pravastatin (morning dosing). One capsule containing pravastatin was administered per os to each dog between 9:00-9:30 a.m. prior to feeding for the 10 mg/kg/day morning dosing group and between 2:30-3:00 p.m. for the afternoon dosing groups. All animals were fed between 9:30-10:00 a.m. and were allowed two hours to eat, at which time any remaining food was removed. […] Animals were dosed daily for four weeks and blood samples were taken at the end of each week after an overnight fast for comparison with pretreatment serum total cholesterol levels.
Following this initial four week dose-ranging study, dogs from the two groups receiving 10 mg/kg/day pravastatin (a.m. and p.m. dosing groups) were randomized into two new treatment groups based on serum total cholesterol levels to initiate the combination treatment study. […] Dosing continued in this manner for an additional four weeks (Weeks 5-8) with blood and 48-hour fecal samples collected at the end of each week for serum lipid measurements and fecal bile acid determinations, respectively.

[2] = tested on: Male beagle dogs; assay: as above; type: in vivo; conditions: pravastatin 16.0 mg/kg/day, Week 3, mean ± SEM, n = 6

CC[C@H](C)C(=O)O[C@H]1C[C@H](O)C=C2C=C[C@H](C)[C@H](CC[C@@H](O)C[C@@H](O)CC(=O)O)[C@H]21 [pravastatin, Pravastatin]
TOTAL SERUM CHOLESTEROL ([1]; pravastatin 10.0 mg/kg/day pm dosing, Week 3, mean ± SEM): 128 ± 9^3 mg/dL | % change in serum total cholesterol compared to the pretreatment value of each group ([1]; pravastatin 10.0 mg/kg/day pm dosing, Week 4): (−21) % | TOTAL SERUM CHOLESTEROL ([1]; pravastatin 10.0 mg/kg/day pm dosing, Week 4, mean ± SEM): 126 ±8 mg/dL and 126 ± 8^3 mg/dL | % change in serum total cholesterol compared to the pretreatment value of each group ([1]; pravastatin 16.0 mg/kg/day, Week 1): (−8) % | SERUM TOTAL CHOLESTEROL ([1]; pravastatin 16.0 mg/kg/day, Week 1, mean ± SEM): 142 ± 8 mg/dL | % change in serum total cholesterol compared to the pretreatment value of each group ([1]; pravastatin 16.0 mg/kg/day, Week 2): (−12) % | SERUM TOTAL CHOLESTEROL ([1]; pravastatin 16.0 mg/kg/day, Week 2, mean ± SEM): 137 ± 12^2 mg/dL | % change in serum total cholesterol compared to the pretreatment value of each group ([1]; pravastatin 16.0 mg/kg/day, Week 3): (−14) % | decrease in serum total cholesterol concentration ([1]; pravastatin 16.0 mg/kg/day, one week of treatment): 8% | decrease in serum total cholesterol concentration ([1]; pravastatin 16.0 mg/kg/day, three weeks of treatment): 14% | % change in serum total cholesterol compared to the pretreatment value of each group ([1]; pravastatin 30.0 mg/kg/day pm dosing, Week 1): (+2) % | TOTAL SERUM CHOLESTEROL ([1]; pravastatin 30.0 mg/kg/day pm dosing, Week 1, mean ± SEM): 164 ± 10 mg/dL | % change in serum total cholesterol compared to the pretreatment value of each group ([1]; pravastatin 30.0 mg/kg/day pm dosing, Week 2): (−18) % | TOTAL SERUM CHOLESTEROL ([1]; pravastatin 30.0 mg/kg/day pm dosing, Week 2, mean ± SEM): 132 ± 8^3 mg/dL | % change in serum total cholesterol compared to the pretreatment value of each group ([1]; pravastatin 30.0 mg/kg/day pm dosing, Week 3): (−18) % | TOTAL SERUM CHOLESTEROL ([1]; pravastatin 30.0 mg/kg/day pm dosing, Week 3, mean ± SEM): 132 ± 11^3 mg/dL | % change in serum total cholesterol compared to the pretreatment value of each group ([1]; pravastatin 30.0 mg/kg/day pm dosing, Week 4): (−20) % | TOTAL SERUM CHOLESTEROL ([1]; pravastatin 30.0 mg/kg/day pm dosing, Week 4, mean ± SEM): 128 ± 7^3 mg/dL | lowering of serum total cholesterol ([1]; pravastatin 30 mg/kg/day, four week dose ranging study): 20% | total decrease in serum total cholesterol compared to the pretreatment value ([1]; pravastatin monotherapy 10 mg/kg/day, Week 8): 30% | % change from Week 0 in total serum cholesterol ([1]; pravastatin monotherapy 10 mg/kg/day, dosed Weeks 1-11, Week 1): (−2) % | TOTAL SERUM CHOLESTEROL ([1]; pravastatin monotherapy 10 mg/kg/day, dosed Weeks 1-11, Week 1, mean ± SEM): 157 ± 10 mg/dL | % change from Week 0 in total serum cholesterol ([1]; pravastatin monotherapy 10 mg/kg/day, dosed Weeks 1-11, Week 2): (−16) % | TOTAL SERUM CHOLESTEROL ([1]; pravastatin monotherapy 10 mg/kg/day, dosed Weeks 1-11, Week 2, mean ± SEM): 135 ± 17 mg/dL | % change from Week 0 in total serum cholesterol ([1]; pravastatin monotherapy 10 mg/kg/day, dosed Weeks 1-11, Week 3): (−18) % | TOTAL SERUM CHOLESTEROL ([1]; pravastatin monotherapy 10 mg/kg/day, dosed Weeks 1-11, Week 3, mean ± SEM): 132 ± 13 mg/dL | % change from Week 0 in total serum cholesterol ([1]; pravastatin monotherapy 10 mg/kg/day, dosed Weeks 1-11, Week 4): (−19) % | TOTAL SERUM CHOLESTEROL ([1]; pravastatin monotherapy 10 mg/kg/day, dosed Weeks 1-11, Week 4, mean ± SEM): 130 ± 9 [a] mg/dL | % change from Week 0 in total serum cholesterol ([1]; pravastatin monotherapy 10 mg/kg/day, dosed Weeks 1-11, Week 5): (−21) % | TOTAL SERUM CHOLESTEROL ([1]; pravastatin monotherapy 10 mg/kg/day, dosed Weeks 1-11, Week 5, mean ± SEM): 127 ± 9 [a] mg/dL | % change from Week 0 in total serum cholesterol ([1]; pravastatin monotherapy 10 mg/kg/day, dosed Weeks 1-11, Week 6): (−27) % | TOTAL SERUM CHOLESTEROL ([1]; pravastatin monotherapy 10 mg/kg/day, dosed Weeks 1-11, Week 6, mean ± SEM): 117 ± 10 [a] mg/dL | % change from Week 0 in total serum cholesterol ([1]; pravastatin monotherapy 10 mg/kg/day, dosed Weeks 1-11, Week 7): (−25) % | TOTAL SERUM CHOLESTEROL ([1]; pravastatin monotherapy 10 mg/kg/day, dosed Weeks 1-11, Week 7, mean ± SEM): 121 ± 7 [a] mg/dL | % change from Week 0 in total serum cholesterol ([1]; pravastatin monotherapy 10 mg/kg/day, dosed Weeks 1-11, Week 8): (−30) % | TOTAL SERUM CHOLESTEROL ([1]; pravastatin monotherapy 10 mg/kg/day, dosed Weeks 1-11, Week 8, mean ± SEM): 113 ±9 mg/dL and 113 ± 9 [a] mg/dL | % change from Week 0 in total serum cholesterol ([1]; pravastatin monotherapy 10 mg/kg/day, dosed Weeks 1-11, Week 9): (−26) % | TOTAL SERUM CHOLESTEROL ([1]; pravastatin monotherapy 10 mg/kg/day, dosed Weeks 1-11, Week 9, mean ± SEM): 119 ± 8 [a] mg/dL | % change from Week 0 in total serum cholesterol ([1]; pravastatin monotherapy 10 mg/kg/day, dosed Weeks 1-11, Week 10): (−27) % | TOTAL SERUM CHOLESTEROL ([1]; pravastatin monotherapy 10 mg/kg/day, dosed Weeks 1-11, Week 10, mean ± SEM): 118 ± 9 [a] mg/dL | % change from Week 0 in total serum cholesterol ([1]; pravastatin monotherapy 10 mg/kg/day, dosed Weeks 1-11, Week 11): (−27) % | TOTAL SERUM CHOLESTEROL ([1]; pravastatin monotherapy 10 mg/kg/day, dosed Weeks 1-11, Week 11, mean ± SEM): 118 ± 8 [a] mg/dL | % change from Week 0 in total serum cholesterol ([1]; pravastatin monotherapy group, dosing terminated after Week 11, Week 12): (−19) % | TOTAL SERUM CHOLESTEROL ([1]; pravastatin monotherapy group, dosing terminated after Week 11, Week 12, mean ± SEM): 131 ± 9 [a] mg/dL | % change from Week 0 in total serum cholesterol ([1]; pravastatin monotherapy group, dosing terminated after Week 11, Week 13): (−9) % | TOTAL SERUM CHOLESTEROL ([1]; pravastatin monotherapy group, dosing terminated after Week 11, Week 13, mean ± SEM): 147 ± 9 mg/dL | % change from Week 0 in total serum cholesterol ([1]; pravastatin monotherapy group, dosing terminated after Week 11, Week 14): (−11) % | TOTAL SERUM CHOLESTEROL ([1]; pravastatin monotherapy group, dosing terminated after Week 11, Week 14, mean ± SEM): 144 ± 12 mg/dL | SERUM TOTAL CHOLESTEROL [2]: 134 ± 13^2 mg/dL
